Measured values: BindingDB's records for patent US20260055102 (Redx Pharma, 2026)

How the values were obtained:
[1] = molecular target: Epithelial discoidin domain-containing receptor 1 (Homo sapiens, UniProt Q08345); assay: DDR1 and DDR2 Biochemical Assay
Procedure: (§1) The capacity of compounds to bind to DDR1 and DDR2 was quantified using a LanthaScreen Eu Kinase Binding Assay. Recombinant human DDR1 (2.5 nM; aa440-876 containing a GST tag) and DDR2 (1.75 nM; aa427-855 containing a GST tag) were diluted in assay buffer (50 mM HEPES pH7.3, 10 mM MgCl2, 1 mM EGTA and 0.01% Tween) with various concentrations of compound in a 384-well plate and a volume of 5 uL. After a 30-minute incubation at room temperature, 2.5 uL of Eu-anti GST antibody (diluted to 1 nM in assay buffer) plus Kinase Tracer 178 (diluted in assay buffer to 5 nM for DDR1 and 10 nM for DDR2) were added to the plate. Following 60-minute incubation at room temperature, time-resolved fluorescence was measured on a BMG Labtech PHERAstar plate reader. DMSO (1%) and reference compound (1 μM) were used to generate the Max and Min assay signals, respectively. Data was analysed using a four-parameter logistic model to calculate IC50 values, with at least two independent replicates were performed for each compound.

[2] = molecular target: T1, Discoidin domain-containing receptor 2 (Homo sapiens, UniProt Q16832); assay: DDR1 and DDR2 Biochemical Assay
T1 sequence (Q16832 whole entry): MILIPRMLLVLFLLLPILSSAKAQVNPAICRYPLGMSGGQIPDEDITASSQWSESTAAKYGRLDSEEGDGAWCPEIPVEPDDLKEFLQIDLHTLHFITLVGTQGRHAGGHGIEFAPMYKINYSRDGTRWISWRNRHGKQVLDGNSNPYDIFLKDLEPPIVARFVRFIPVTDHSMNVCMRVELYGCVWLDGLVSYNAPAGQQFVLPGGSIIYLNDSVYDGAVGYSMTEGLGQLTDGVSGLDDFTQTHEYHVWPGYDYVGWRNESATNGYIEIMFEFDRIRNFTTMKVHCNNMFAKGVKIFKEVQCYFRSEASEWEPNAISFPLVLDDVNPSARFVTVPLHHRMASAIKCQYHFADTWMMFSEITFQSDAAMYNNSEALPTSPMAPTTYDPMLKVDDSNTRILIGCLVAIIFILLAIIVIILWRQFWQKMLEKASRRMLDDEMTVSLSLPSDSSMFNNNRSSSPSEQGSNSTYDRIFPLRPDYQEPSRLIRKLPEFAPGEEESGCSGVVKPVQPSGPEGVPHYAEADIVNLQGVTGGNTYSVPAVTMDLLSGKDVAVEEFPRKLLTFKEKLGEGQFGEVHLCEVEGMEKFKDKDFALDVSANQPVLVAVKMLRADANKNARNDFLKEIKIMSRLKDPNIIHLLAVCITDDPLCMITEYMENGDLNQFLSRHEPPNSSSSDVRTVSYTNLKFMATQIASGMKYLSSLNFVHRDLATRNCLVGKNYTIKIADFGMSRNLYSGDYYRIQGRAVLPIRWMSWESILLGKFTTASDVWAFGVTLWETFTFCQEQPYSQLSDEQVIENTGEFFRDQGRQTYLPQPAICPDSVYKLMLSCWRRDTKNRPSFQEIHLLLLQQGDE
Procedure: as §1

Sequence of Epithelial discoidin domain-containing receptor 1 (Q08345 whole entry, the tested form may be a part): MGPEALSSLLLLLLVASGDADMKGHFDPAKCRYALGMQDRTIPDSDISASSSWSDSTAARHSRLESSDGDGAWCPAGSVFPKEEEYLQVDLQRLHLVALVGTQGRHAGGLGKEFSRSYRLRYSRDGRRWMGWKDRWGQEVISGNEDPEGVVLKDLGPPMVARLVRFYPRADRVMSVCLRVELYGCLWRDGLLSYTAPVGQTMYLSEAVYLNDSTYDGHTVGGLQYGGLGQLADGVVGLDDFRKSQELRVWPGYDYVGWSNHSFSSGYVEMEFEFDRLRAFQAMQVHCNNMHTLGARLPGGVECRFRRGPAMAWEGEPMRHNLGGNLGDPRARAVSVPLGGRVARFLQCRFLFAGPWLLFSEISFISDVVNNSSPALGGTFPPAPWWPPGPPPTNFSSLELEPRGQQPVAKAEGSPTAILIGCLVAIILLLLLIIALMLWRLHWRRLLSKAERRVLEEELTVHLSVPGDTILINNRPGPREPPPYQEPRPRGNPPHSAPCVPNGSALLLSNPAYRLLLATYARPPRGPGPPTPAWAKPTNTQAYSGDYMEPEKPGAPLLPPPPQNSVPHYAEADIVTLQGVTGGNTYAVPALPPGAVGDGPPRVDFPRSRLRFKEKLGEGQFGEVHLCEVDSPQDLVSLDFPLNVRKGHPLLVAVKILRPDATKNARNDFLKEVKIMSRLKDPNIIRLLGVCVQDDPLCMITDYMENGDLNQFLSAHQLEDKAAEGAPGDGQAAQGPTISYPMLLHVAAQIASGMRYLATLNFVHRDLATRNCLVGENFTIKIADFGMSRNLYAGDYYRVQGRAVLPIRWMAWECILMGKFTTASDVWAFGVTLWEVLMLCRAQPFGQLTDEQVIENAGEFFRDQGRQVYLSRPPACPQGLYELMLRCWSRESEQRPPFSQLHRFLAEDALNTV

Row | IC50 [1] | IC50 [2] | Structure (SMILES)
1 | < 10 nM | – | Cc1cccc2c1n(-c1ccc(-c3cncc4c3cnn4C)cn1)c(=O)n2CC(=O)N1CCO[C@H](C(F)(F)F)C1 [US20260055102, Example 61]
2 | – | > 1000 nM | CN(C)c1cccc2c1n(-c1ccc(-c3cncc4c3cnn4C)cc1)c(=O)n2CC(=O)NCC(F)(F)F [US20260055102, Example 80]
3 | – | > 1000 nM | Cc1cccc2c1n(-c1ccc(-c3cncc4c3cnn4C)cc1)c(=O)n2CC(=O)N1CCC[C@H]1CF [US20260055102, Example 26]
4 | > 1000 nM | > 1000 nM | Cc1nc(-n2c(=O)n(CC(=O)NCC(F)(F)F)c3cccc(C)c32)cnc1-c1cncc2c1cnn2C [US20260055102, Example 100]
